# Key:
# Conditions in all cases: 72 h
# HepG2 [1] = test: drug sensitivity score (DSS) for viability; higher = more toxic; extreme values may be limits of the assay
# Vero E6 [2] = test: as above
# Calu-3 [3] = test: as above
# U2OS [4] = test: as above
# Caco-2 [5] = test: as above
# Vero E6 [6] = test: relative viability EC50 (midpoint between 100% and the lowest measured viability); higher = less toxic
# Calu-3 [7] = test: as above
# U2OS [8] = test: as above
# Caco-2 [9] = test: as above
# HepG2 [10] = test: cell viability relative to DMSO; higher = less toxic
# Vero E6 [11] = test: as above
# Calu-3 [12] = test: as above
# U2OS [13] = test: as above
# Caco-2 [14] = test: as above
# HepG2 [15] = test: relative viability EC50 (midpoint between 100% and the lowest measured viability); higher = less toxic
SMILES,drug sensitivity score (HepG2 [1]),drug sensitivity score (Vero E6 [2]),drug sensitivity score (Calu-3 [3]),drug sensitivity score (U2OS [4]),drug sensitivity score (Caco-2 [5]),relative viability EC50 (Vero E6 [6]) [µM],relative viability EC50 (Calu-3 [7]) [µM],relative viability EC50 (U2OS [8]) [µM],relative viability EC50 (Caco-2 [9]) [µM],cell viability (HepG2 [10]; 1 nM) [%],cell viability (HepG2 [10]; 10 nM) [%],cell viability (HepG2 [10]; 100 nM) [%],cell viability (HepG2 [10]; 1000 nM) [%],cell viability (HepG2 [10]; 10000 nM) [%],cell viability (Vero E6 [11]; 1 nM) [%],cell viability (Vero E6 [11]; 10 nM) [%],cell viability (Vero E6 [11]; 100 nM) [%],cell viability (Vero E6 [11]; 1000 nM) [%],cell viability (Vero E6 [11]; 10000 nM) [%],cell viability (Calu-3 [12]; 1 nM) [%],cell viability (Calu-3 [12]; 10 nM) [%],cell viability (Calu-3 [12]; 100 nM) [%],cell viability (Calu-3 [12]; 1000 nM) [%],cell viability (Calu-3 [12]; 10000 nM) [%],cell viability (U2OS [13]; 1 nM) [%],cell viability (U2OS [13]; 10 nM) [%],cell viability (U2OS [13]; 100 nM) [%],cell viability (U2OS [13]; 1000 nM) [%],cell viability (U2OS [13]; 10000 nM) [%],cell viability (Caco-2 [14]; 1 nM) [%],cell viability (Caco-2 [14]; 10 nM) [%],cell viability (Caco-2 [14]; 100 nM) [%],cell viability (Caco-2 [14]; 1000 nM) [%],cell viability (Caco-2 [14]; 10000 nM) [%],relative viability EC50 (HepG2 [15]) [µM]
CC(C)N(CCC(=O)c1ccc2ccccc2c1)Cc1ccccc1,1.4,0.3,0,0,0,> 10,> 10,> 10,> 10,98.4,91.6,99,101,66.6,96.2,98.7,99,96.3,87,97.6,102,102,97.5,92.1,99.2,98.2,93.5,96.7,95,90.3,94.8,94.4,97.7,99.5,
CCc1c(-c2ccccc2)c(-c2ccccc2)nn1-c1ccccc1-c1cccc(OCC(=O)O)c1,,0,0.5,0,0,> 10,> 10,> 10,> 10,,,,,,102,103,103,101,97.9,93.4,94.7,101,94,86.3,99.7,101,98,105,97.4,102,105,97.8,113,91.5,
CNC(=O)c1cccc(NC(=O)N2CCC(Oc3ccccc3Cl)CC2)c1,4.8,0,0,0,0.3,> 10,> 10,> 10,> 10,99.1,101,92.4,79.3,50.5,102,99.5,97,89.9,91,80.3,99.6,86.4,99.4,101,94.9,103,97.3,99.6,91.4,94.3,100,93.2,102,82.7,
COc1ccc(-c2oc3cc(OC)ccc3c2C(=O)c2ccc(C#N)cc2)cc1,2,0,0,0,0,> 10,> 10,> 10,> 10,107,96.8,109,92.8,74.4,104,101,101,96.4,99,96.4,98.8,101,106,102,98.2,103,95.2,101,95.4,99.7,96.4,95.3,93.6,87.2,
C[C@]12CC[C@@H](O)C[C@@H]1CC[C@@H]1[C@@H]2CC[C@]2(C)C(c3ccccc3)=CC[C@@H]12 [17-PA],,0,0,0,0.3,> 10,> 10,> 10,> 10,,,,,,98.1,89.2,99.6,93,107,101,106,94.2,94.7,99.8,96.1,101,96.4,103,102,95,87.9,87.5,104,82.6,
CC(C)c1nnc(-c2ccc(-c3ccccc3)nc2)n1-c1cccc2nonc12 [ASP-2535],0,0,0,,0,> 10,> 10,,> 10,104,106,107,107,88.7,98.8,102,97.8,102,92.9,103,92.2,103,93.3,103,,,,,,104,99,96.4,95.5,96.2,> 10
CC(=O)N1CCN(CCOc2ccc(C3CCN(C4=Nn5c(nnc5C(F)(F)F)CC4)CC3)cc2)CC1 [AZD3514],4.5,3.4,0,2.1,1.1,,> 10,,> 10,88.9,95.9,82.4,91.4,43.2,104,98.3,92.2,90.7,59.1,98.2,96.1,89.4,107,91,99.8,94,99.4,94.9,69.9,90.2,99.3,93.7,98.3,75.9,1.97
Cc1nc(C)c(-c2ccc(C3CCC(CC(=O)O)CC3)cc2)nc1C(N)=O (stereo not given) [AZD7687],0,0,0,,0.1,> 10,> 10,,> 10,105,104,109,102,92.1,103,100,97.3,99.9,98.5,104,104,98.2,96.7,105,,,,,,116,99.6,97.7,102,86.2,> 10
C[C@@H](N[C@H]1CCCC[C@@H]1NC(=O)c1ccc(Cl)cc1)c1cccc2ccccc12 [Calhex-231],1.7,0,0.1,0.3,0,> 10,> 10,> 10,> 10,97.9,101,95.7,97.9,68.6,103,104,102,98.9,93.4,91.9,108,95.9,109,85.8,98.7,96.2,99.8,94.1,87.3,104,91.7,91.6,102,92.9,
Cc1ccc(-c2csc(NC(=O)c3ccccc3)n2)c(C)c1 [INH1],1.8,0,0,0,0.4,> 10,> 10,> 10,> 10,102,104,98.8,104,58.7,102,96.8,98.4,97.5,91.1,96.9,102,101,107,98.3,94.7,101,95.3,96.3,96.6,97.2,104,96.1,91.5,85.8,
CC(=O)NC1=NN(C(C)=O)[C@](C)(c2ccccc2)S1 [K-858],2.9,3.7,0,2,1.1,2.63,> 10,,,98.8,101,98.7,106,39.2,103,103,99,96.2,42.2,108,93,96.3,101,91.5,97,96.5,97.6,98.3,63.9,106,102,91.3,102,71,3.65
Cc1cc2sc(NC(=O)Cc3ccccc3)nc2cc1Cl [LH846],0,0,0,,0,> 10,> 10,,> 10,98.7,119,103,102,108,96.5,99.2,98,93.5,107,115,105,110,100,92.7,,,,,,95.8,93.3,101,110,101,> 10
CC(=O)c1cc([N+](=O)[O-])c(Sc2cccc(Cl)c2Cl)s1 [P5091],0,0,0,2.4,4.5,> 10,> 10,,,95.7,97.9,93.3,105,93.7,99.4,97.5,97.2,99.7,90.4,110,93.3,93.5,96.9,106,95.9,97.3,97.9,96.9,60.4,100,90,98.8,87.2,52.1,> 10
COc1cc(OC)c(OC)cc1C=O [asaraldehyde],,0,0,0,0,> 10,> 10,> 10,> 10,,,,,,108,100,98.6,103,102,87,108,90.5,107,88.3,97.3,103,97.7,105,99,95.2,102,94.8,104,90.1,
CC(=O)OCC(=O)[C@@]1(O)CC[C@H]2[C@@H]3CCC4=CC(=O)C=C[C@]4(C)[C@@]3(Cl)[C@@H](Cl)C[C@@]21C [dichlorisone-acetate],0,0,0,,0,> 10,> 10,,> 10,96.4,94.5,99,99.3,92.4,105,102,102,98.7,105,98.9,107,100,89.2,102,,,,,,105,103,99.7,105,110,> 10

# From the supplement of paper PMC13380429
